The values below are quoted from earlier work in publication PMC12776573, “Mechanism of Self-Assembly of the Gonadropin Releasing Hormone Antagonist Teverelix into Amyloid Fibrils” (Molecular Pharmaceutics, 2025).

Square brackets hold non-standard residues; d marks the D form. Peptide text beside a SMILES is read from it. dPhe(4-Cl) = N[C@H](Cc1ccc(Cl)cc1)C(=O)O; d2Nal = N[C@H](Cc1ccc2ccccc2c1)C(=O)O; d(hCit) = NC(=O)NCCCC[C@@H](N)C(=O)O; Lys(iPr) = CC(C)NCCCC[C@H](N)C(=O)O; d3Pal = N[C@H](Cc1cccnc1)C(=O)O

The conditions of this data set: side chain of Tv thought to be deprotonated on fibril formation; not measured here, no reference given. From the text: Calculations establish that a single deprotonation event occurs (see the footnote to Table S1). Considering the pK a of all possible protonation sites in Tv, we think that the pyridine side c ...

As to `CC(=O)N[C@H](Cc1ccc2ccccc2c1)C(=O)N[C@H](Cc1ccc(Cl)cc1)C(=O)N[C@H](Cc1cccnc1)C(=O)N[C@@H](CO)C(=O)N[C@@H](Cc1ccc(O)cc1)C(=O)N[C@H](CCCCNC(N)=O)C(=O)N[C@@H](CC(C)C)C(=O)N[C@@H](CCCCNC(C)C)C(=O)N1CCC[C@H]1C(=O)N[C@H](C)C(N)=O` [Tv, Ac-D-Nal(2)-D-Phe(4Cl)-D-Pal(3)-Ser-Tyr-D-Hcit-Leu-Lys(iPr)-Pro-D-Ala-NH2] (Ac-[d2Nal][dPhe(4-Cl)][d3Pal]SY[d(hCit)]L[Lys(iPr)]P[dA]-NH2), the “pKa of the pyridine side chain” value was 5.22.
